Legend:
[1] = biological target: RAF proto-oncogene serine/threonine-protein kinase (Homo sapiens) (UniProt P04049); assay: Inhibition of human RAF1 assessed as remaining enzyme activity at 0.1 uM
[2] = biological target: Vascular endothelial growth factor receptor 3 (Homo sapiens) (UniProt P35916); assay: Inhibition of human VEGFR3 assessed as remaining enzyme activity at 0.01 uM
[3] = biological target: Serine/threonine-protein kinase B-raf (Homo sapiens) (UniProt P15056); assay: Inhibition of human B-Raf assessed as remaining enzyme activity at 0.01 uM
[4] = biological target: Tyrosine-protein kinase FRK (Homo sapiens) (UniProt P42685); assay: Inhibition of human PTK5 assessed as remaining enzyme activity at 0.1 uM
[5] = biological target: Tyrosine-protein kinase Blk (Mus musculus) (UniProt P16277); assay: Inhibition of mouse BLK assessed as remaining enzyme activity at 0.01 uM
[6] = biological target: Homeodomain-interacting protein kinase 3 (Homo sapiens) (UniProt Q9H422); assay: Inhibition of human HIPK3 assessed as remaining enzyme activity at 0.01 uM
[7] = biological target: Tyrosine-protein kinase Lyn (Homo sapiens) (UniProt P07948); assay: Inhibition of human LYN assessed as remaining enzyme activity at 1 uM
[8] = biological target: Ephrin type-A receptor 2 (Homo sapiens) (UniProt P29317); assay: Inhibition of human EphA2 assessed as remaining enzyme activity at 0.1 uM
[9] = biological target: Tyrosine-protein kinase ABL2 (Mus musculus) (UniProt Q4JIM5); assay: Inhibition of mouse ARG assessed as remaining enzyme activity at 0.1 uM
[10] = biological target: Mitogen-activated protein kinase kinase kinase kinase 5 (Homo sapiens) (UniProt Q9Y4K4); assay: Inhibition of human MAP4K5 assessed as remaining enzyme activity at 0.01 uM
[11] = biological target: Tyrosine-protein kinase ABL2 (Mus musculus) (UniProt Q4JIM5); assay: Inhibition of mouse ARG assessed as remaining enzyme activity at 0.01 uM
[12] = biological target: Epithelial discoidin domain-containing receptor 1 (Homo sapiens) (UniProt Q08345); assay: Inhibition of human DDR1 assessed as remaining enzyme activity at 0.1 uM
[13] = biological target: Macrophage colony-stimulating factor 1 receptor (Homo sapiens) (UniProt P07333); assay: Inhibition of human FMS assessed as remaining enzyme activity at 0.01 uM
[14] = biological target: LIM domain kinase 1 (Homo sapiens) (UniProt P53667); assay: Inhibition of human LIMK1 assessed as remaining enzyme activity at 1 uM
[15] = biological target: BDNF/NT-3 growth factors receptor (Homo sapiens) (UniProt Q16620); assay: Inhibition of human TRKB assessed as remaining enzyme activity at 0.01 uM
[16] = biological target: Mitogen-activated protein kinase kinase kinase 20 (Homo sapiens) (UniProt Q9NYL2); assay: Inhibition of human ZAK assessed as remaining enzyme activity at 0.01 uM
[17] = biological target: Ephrin type-A receptor 2 (Homo sapiens) (UniProt P29317); assay: Inhibition of human EphA2 assessed as remaining enzyme activity at 0.01 uM
[18] = biological target: Serine/threonine-protein kinase B-raf (Homo sapiens) (UniProt P15056); assay: Inhibition of human B-Raf assessed as remaining enzyme activity at 1 uM
[19] = biological target: Tyrosine-protein kinase ABL1 (Homo sapiens) (UniProt P00519); assay: Inhibition of human ABL assessed as remaining enzyme activity at 0.1 uM
[20] = biological target: Platelet-derived growth factor receptor beta (Homo sapiens) (UniProt P09619); assay: Inhibition of human PDGFRbeta assessed as remaining enzyme activity at 1 uM
[21] = biological target: Vascular endothelial growth factor receptor 1 (Homo sapiens) (UniProt P17948); assay: Inhibition of human VEGFR1 assessed as remaining enzyme activity at 0.1 uM
[22] = biological target: NT-3 growth factor receptor (Homo sapiens) (UniProt Q16288); assay: Inhibition of human TRKC assessed as remaining enzyme activity at 0.1 uM
[23] = biological target: Vascular endothelial growth factor receptor 1 (Homo sapiens) (UniProt P17948); assay: Inhibition of human VEGFR1 assessed as remaining enzyme activity at 1 uM
[24] = biological target: Tyrosine-protein kinase Lyn (Homo sapiens) (UniProt P07948); assay: Inhibition of human LYN assessed as remaining enzyme activity at 0.1 uM
[25] = biological target: Homeodomain-interacting protein kinase 2 (Homo sapiens) (UniProt Q9H2X6); assay: Inhibition of human HIPK2 assessed as remaining enzyme activity at 1 uM
[26] = biological target: NT-3 growth factor receptor (Homo sapiens) (UniProt Q16288); assay: Inhibition of human TRKC assessed as remaining enzyme activity at 1 uM
[27] = biological target: Tyrosine-protein kinase FRK (Homo sapiens) (UniProt P42685); assay: Inhibition of human PTK5 assessed as remaining enzyme activity at 1 uM
[28] = biological target: Epithelial discoidin domain-containing receptor 1 (Homo sapiens) (UniProt Q08345); assay: Inhibition of human DDR1 assessed as remaining enzyme activity at 0.01 uM
[29] = biological target: Tyrosine-protein kinase Blk (Mus musculus) (UniProt P16277); assay: Inhibition of mouse BLK assessed as remaining enzyme activity at 0.1 uM
[30] = biological target: T1, Ephrin type-A receptor 8 (Homo sapiens) (UniProt P29322); assay: Inhibition of human EphA8 assessed as remaining enzyme activity at 1 uM
T1 sequence (whole entry): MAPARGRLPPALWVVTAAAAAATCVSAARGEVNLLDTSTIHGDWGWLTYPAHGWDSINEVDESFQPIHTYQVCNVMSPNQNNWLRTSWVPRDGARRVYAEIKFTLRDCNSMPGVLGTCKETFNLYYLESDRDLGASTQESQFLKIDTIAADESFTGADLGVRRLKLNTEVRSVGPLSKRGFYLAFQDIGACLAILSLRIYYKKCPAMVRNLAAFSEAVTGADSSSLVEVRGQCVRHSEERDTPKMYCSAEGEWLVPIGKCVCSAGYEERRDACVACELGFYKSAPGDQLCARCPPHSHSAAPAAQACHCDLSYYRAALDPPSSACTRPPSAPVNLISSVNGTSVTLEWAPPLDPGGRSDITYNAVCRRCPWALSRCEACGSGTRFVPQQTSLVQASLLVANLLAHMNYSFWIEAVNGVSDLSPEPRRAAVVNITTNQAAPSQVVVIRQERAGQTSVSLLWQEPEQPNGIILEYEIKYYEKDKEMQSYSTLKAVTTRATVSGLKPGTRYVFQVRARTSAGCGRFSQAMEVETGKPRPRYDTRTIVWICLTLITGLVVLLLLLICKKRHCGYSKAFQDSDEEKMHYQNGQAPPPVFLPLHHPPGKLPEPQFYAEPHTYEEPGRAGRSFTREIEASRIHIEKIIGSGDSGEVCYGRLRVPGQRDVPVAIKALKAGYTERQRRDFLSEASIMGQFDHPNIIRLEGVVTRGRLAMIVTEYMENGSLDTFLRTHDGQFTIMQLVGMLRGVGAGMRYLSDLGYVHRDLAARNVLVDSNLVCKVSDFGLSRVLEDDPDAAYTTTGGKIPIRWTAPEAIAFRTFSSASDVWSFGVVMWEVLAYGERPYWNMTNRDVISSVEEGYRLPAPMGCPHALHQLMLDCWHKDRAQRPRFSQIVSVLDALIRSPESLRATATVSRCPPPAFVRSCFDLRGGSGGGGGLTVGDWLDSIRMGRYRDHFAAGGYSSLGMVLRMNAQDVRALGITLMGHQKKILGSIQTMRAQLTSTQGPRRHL

[31] = biological target: Cyclin-dependent kinase-like 2 (Homo sapiens) (UniProt Q92772); assay: Inhibition of human CDKL2 assessed as remaining enzyme activity at 1 uM
[32] = biological target: Homeodomain-interacting protein kinase 3 (Homo sapiens) (UniProt Q9H422); assay: Inhibition of human HIPK3 assessed as remaining enzyme activity at 0.1 uM

Chain of Tyrosine-protein kinase FRK (Homo sapiens) (P42685 whole entry, the tested form may be a part): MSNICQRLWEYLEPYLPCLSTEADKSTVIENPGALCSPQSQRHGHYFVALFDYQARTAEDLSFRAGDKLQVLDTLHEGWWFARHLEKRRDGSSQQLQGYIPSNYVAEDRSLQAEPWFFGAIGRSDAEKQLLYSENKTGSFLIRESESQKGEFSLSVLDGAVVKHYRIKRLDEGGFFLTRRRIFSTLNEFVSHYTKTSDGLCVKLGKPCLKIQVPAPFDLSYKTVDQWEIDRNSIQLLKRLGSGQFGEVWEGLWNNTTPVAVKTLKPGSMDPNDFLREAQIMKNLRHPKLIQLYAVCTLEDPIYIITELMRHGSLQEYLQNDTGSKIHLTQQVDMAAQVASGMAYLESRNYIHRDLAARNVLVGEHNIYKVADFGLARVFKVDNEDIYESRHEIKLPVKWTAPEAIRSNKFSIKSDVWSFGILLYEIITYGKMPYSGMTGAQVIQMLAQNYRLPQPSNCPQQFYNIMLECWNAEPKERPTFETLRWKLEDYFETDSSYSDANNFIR
Chain of Ephrin type-A receptor 2 (Homo sapiens) (P29317 whole entry): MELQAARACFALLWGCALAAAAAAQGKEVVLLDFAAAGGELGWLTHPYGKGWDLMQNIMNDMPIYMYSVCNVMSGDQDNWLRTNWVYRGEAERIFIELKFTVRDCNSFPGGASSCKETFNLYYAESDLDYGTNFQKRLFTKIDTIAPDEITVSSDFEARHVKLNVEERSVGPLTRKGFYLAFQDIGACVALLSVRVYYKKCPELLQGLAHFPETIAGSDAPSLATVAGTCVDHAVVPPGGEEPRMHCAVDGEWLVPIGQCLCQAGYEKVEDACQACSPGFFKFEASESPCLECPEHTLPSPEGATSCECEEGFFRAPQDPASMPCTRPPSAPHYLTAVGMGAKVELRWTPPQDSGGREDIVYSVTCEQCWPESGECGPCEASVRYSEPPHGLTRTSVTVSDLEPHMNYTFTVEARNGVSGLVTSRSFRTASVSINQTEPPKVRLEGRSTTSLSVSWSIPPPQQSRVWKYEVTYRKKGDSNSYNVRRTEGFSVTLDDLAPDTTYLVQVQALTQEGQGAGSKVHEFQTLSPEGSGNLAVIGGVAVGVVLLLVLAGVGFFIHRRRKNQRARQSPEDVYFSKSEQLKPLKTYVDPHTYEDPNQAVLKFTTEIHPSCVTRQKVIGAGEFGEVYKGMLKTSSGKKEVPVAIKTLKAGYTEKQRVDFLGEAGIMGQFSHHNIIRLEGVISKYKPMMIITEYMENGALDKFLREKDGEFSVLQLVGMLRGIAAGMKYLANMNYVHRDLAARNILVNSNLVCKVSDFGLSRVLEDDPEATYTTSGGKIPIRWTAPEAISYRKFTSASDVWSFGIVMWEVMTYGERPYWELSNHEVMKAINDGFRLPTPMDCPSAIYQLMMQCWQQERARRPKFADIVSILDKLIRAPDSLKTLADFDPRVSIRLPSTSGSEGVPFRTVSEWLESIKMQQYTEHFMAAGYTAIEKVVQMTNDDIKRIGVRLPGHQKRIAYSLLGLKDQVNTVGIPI
Chain of Tyrosine-protein kinase Lyn (Homo sapiens) (P07948 2-512 limits assumed): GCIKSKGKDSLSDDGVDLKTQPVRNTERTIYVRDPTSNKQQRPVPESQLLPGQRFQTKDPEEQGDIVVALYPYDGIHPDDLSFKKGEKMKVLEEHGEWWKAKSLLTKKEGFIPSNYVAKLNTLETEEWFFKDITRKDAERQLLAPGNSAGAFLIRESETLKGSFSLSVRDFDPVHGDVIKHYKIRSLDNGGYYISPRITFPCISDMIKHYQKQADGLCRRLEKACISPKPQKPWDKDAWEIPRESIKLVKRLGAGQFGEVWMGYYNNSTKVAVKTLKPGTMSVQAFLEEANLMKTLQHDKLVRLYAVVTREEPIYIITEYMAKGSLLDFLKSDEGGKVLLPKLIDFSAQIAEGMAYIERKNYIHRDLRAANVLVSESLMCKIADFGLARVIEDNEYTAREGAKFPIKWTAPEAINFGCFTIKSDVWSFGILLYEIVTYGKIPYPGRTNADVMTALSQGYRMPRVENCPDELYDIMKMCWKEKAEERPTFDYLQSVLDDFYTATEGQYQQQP
Chain of Vascular endothelial growth factor receptor 1 (Homo sapiens) (P17948 whole entry): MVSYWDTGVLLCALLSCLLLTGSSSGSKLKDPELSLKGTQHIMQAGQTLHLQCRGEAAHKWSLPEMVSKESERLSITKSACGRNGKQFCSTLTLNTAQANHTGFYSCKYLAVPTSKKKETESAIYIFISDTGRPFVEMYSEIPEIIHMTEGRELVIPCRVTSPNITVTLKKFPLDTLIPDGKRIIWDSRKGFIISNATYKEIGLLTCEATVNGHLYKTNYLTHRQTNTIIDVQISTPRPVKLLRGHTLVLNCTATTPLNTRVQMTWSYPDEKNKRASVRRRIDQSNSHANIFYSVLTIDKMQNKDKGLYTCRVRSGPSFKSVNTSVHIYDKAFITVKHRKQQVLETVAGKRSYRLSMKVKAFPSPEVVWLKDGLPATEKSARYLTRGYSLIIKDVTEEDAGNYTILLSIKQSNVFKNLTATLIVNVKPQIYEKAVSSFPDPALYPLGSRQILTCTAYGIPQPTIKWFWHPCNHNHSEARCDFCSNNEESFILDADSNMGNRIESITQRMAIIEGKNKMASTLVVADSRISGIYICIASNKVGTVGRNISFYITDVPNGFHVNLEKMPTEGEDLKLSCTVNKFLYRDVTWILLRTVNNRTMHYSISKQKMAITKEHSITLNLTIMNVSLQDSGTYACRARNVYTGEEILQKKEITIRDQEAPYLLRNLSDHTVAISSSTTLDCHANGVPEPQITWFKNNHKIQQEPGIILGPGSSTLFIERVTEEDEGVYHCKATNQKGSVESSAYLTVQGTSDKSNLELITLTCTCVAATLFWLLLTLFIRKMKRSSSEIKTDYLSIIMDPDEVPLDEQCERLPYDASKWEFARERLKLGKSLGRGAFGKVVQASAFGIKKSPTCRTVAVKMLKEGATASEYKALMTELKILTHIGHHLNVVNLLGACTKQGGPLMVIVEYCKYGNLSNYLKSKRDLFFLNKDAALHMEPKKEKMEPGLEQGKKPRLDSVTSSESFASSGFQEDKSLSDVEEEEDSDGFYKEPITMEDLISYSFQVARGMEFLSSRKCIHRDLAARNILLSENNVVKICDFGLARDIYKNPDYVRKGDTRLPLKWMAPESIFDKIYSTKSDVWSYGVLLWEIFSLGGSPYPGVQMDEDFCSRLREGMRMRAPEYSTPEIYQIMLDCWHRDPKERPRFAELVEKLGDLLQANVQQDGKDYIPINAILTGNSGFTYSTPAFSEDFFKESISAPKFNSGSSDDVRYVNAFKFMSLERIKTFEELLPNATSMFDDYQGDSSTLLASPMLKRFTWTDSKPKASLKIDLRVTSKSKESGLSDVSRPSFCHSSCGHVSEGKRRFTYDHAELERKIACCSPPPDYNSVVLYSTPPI
Chain of NT-3 growth factor receptor (Homo sapiens) (Q16288 32-839 limits assumed): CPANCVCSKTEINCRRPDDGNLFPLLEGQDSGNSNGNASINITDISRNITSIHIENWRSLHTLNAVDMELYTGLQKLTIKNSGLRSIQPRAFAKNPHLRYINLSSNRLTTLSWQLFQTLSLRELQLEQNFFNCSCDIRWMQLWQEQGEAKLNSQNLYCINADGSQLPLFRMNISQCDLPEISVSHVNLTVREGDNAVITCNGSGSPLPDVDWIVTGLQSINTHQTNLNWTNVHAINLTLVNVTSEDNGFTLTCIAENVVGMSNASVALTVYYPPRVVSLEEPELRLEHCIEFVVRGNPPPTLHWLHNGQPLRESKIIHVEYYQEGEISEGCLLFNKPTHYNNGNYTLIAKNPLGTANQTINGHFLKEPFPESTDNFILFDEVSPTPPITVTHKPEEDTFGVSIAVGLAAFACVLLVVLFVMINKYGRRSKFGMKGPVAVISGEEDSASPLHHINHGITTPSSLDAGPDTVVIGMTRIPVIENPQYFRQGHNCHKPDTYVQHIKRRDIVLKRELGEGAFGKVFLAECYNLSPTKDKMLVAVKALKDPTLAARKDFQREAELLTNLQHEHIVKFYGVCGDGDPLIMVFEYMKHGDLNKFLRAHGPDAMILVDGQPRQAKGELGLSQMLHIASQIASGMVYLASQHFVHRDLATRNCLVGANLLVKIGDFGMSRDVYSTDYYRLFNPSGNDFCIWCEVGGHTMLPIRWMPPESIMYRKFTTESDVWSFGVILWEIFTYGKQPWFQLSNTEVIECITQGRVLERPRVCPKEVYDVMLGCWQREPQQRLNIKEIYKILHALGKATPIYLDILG
Chain of Tyrosine-protein kinase Blk (Mus musculus) (P16277 whole entry): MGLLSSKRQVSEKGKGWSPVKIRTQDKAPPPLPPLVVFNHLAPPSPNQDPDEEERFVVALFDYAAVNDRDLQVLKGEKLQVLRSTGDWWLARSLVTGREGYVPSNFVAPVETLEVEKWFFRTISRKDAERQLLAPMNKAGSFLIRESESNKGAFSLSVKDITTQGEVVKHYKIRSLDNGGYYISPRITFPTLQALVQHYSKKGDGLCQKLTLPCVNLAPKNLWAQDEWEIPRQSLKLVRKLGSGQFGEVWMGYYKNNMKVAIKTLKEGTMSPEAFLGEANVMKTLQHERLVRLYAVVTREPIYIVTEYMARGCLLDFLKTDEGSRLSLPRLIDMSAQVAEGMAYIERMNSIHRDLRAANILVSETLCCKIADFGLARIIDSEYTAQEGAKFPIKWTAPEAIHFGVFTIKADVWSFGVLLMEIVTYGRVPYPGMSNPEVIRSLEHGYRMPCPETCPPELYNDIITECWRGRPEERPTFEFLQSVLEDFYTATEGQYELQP

`CNC(=O)c1cc(Oc2ccc(NC(=O)Nc3ccc(Cl)c(C(F)(F)F)c3)c(F)c2)ccn1` gave an Activity [1] of 57%, an Activity [2] of 38% and an Activity [3] of 101%. It also gave an Activity [4] of 18%, an Activity [5] of 52% and an Activity [6] of 103%. For the same molecule, the Activity [7] was 1%, the Activity [8] was 58% and the Activity [9] was 29%. It also gave an Activity [10] of 104%, an Activity [11] of 97% and an Activity [12] of 43%. It also gave an Activity [13] of 73%, an Activity [14] of 46% and an Activity [15] of 100%. For the same molecule, the Activity [16] was 27%, the Activity [17] was 90% and the Activity [18] was 8%. It also gave an Activity [19] of 49%, an Activity [20] of 55% and an Activity [21] of 3%. For the same molecule, the Activity [22] was 17%, the Activity [23] was 3% and the Activity [24] was 21%. For the same molecule, the Activity [25] was 13%, the Activity [26] was 1% and the Activity [27] was 3%. For the same molecule, the Activity [28] was 92%, the Activity [29] was 45% and the Activity [30] was 5%. It also gave an Activity [31] of 47% and an Activity [32] of 68%.
